One assay addresses T1, R560T (Homo sapiens, UniProt P13569, R560T).
T1 construct: host or cells: FRT cells
In words: Short-circuit current in FRT cells expressing R560T-CFTR. The class given is cell-based. The conditions noted are these: 20 μM forskolin, 5 μM VX-770, 20 μM ASP-11. As for the experimental part:
(§1) Short-circuit current was measured on cells cultured on permeable supports (Corning) as described (Haggie, 2017; Phuan, 2018). For FRT cells, the basolateral membrane was permeabilized with 250 μg/mL amphotericin B, and experiments were done using a HCO3^−-buffered system (in mM: 120 NaCl, 5 KCl, 1 MgCl2, 1 CaCl2), 5 Hepes, 25 NaHCO3, 10 glucose, pH 7.4) with a basolateral to apical chloride gradient (60 mM NaCl replaced by sodium gluconate in the apical solution). For human airway epithelial cells, symmetrical HCO3^−-buffered solutions (containing 120 mM NaCl) were used. Cells were equilibrated with 95% O2, 5% CO2 and maintained at 37° C. Hemichambers were connected to a DVC-1000 voltage clamp (World Precision Instruments Inc., Sarasota, Fla.) via Ag/AgCl electrodes and 3 M KCl agar bridges for recording of the short-circuit current.

Assay [1] deals with T2, N1303K-CFTR (Homo sapiens, UniProt P13569, N1303K). Further details: expressed in transfected cells; host or cells: Fischer rat thyroid (FRT) cells. The following applies: ASP-11 in combination with VX-770; transfected FRT cells; cited from earlier work.
The next assay has as its target T3, Q1313X-CFTR (Homo sapiens, UniProt P13569).
T3 construct: several truncated forms of CFTR resulting from premature termination codons (PTCs) located in NBD2; expressed in transfected cells; host or cells: FRT cells, pIRESpuro3 vector, puromycin-selected clonal lines
Description: Short-circuit current in FRT cells expressing Q1313X-CFTR. Format: cell-based. The following applies: 20 μM ASP-11 with 5 μM VX-770, 20 μM forskolin. In short, it runs like this:
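FRT cells on permeable supports; basolateral membrane permeabilized with 250 μg/mL amphotericin B; HCO3^−-buffered solution, pH 7.4, 37° C, 95% O2/5% CO2, with basolateral-to-apical chloride gradient (60 mM apical NaCl replaced by gluconate). Short-circuit current recorded under voltage clamp; EC50 by nonlinear regression, single-site model.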

Assay [2] concerns the target T2, N1303K-CFTR. In words: Short-circuit current in FRT cells expressing N1303K-CFTR. The class given is cell-based. Further details: expressed in transfected cells; host or cells: Fischer rat thyroid (FRT) cells.
Another assay has as its target T4, R334W (Homo sapiens, UniProt P13569, R334W).
T4 construct: host or cells: FRT cells
Description: Short-circuit current in FRT cells expressing R334W-CFTR. The conditions noted are these: 20 μM forskolin, 5 μM VX-770, 20 μM ASP-11. The class given is cell-based. As to the method: as §1

The next assay addresses T5, S492F-CFTR (Homo sapiens, UniProt P13569, S492F).
T5 construct: host or cells: FRT cells
Description: Short-circuit current in FRT cells expressing S492F-CFTR. The following applies: 20 μM forskolin, 5 μM VX-770, 20 μM ASP-11, 3 μM VX-809 pretreatment. The class given is cell-based. As for the experimental part:
as §1

The target in a further assay is G551D-CFTR (Homo sapiens, UniProt P13569, G551D). The conditions noted are these: cited from earlier work.
The next assay concerns the target T6, L1077P (Homo sapiens, UniProt P13569, L1077P).
T6 construct: host or cells: FRT cells
In words: Short-circuit current in FRT cells expressing L1077P-CFTR. Format: cell-based. The conditions noted are these: 20 μM forskolin, 5 μM VX-770, 20 μM ASP-11. As for the experimental part: as §1

The target in a further assay is T7, M1101K (Homo sapiens, UniProt P13569, M1101K).
T7 construct: host or cells: FRT cells
In words: Short-circuit current in FRT cells expressing M1101K-CFTR. The class given is cell-based. The conditions noted are these: 20 μM forskolin, 5 μM VX-770, 20 μM ASP-11. As for the experimental part:
as §1

The target in another assay is T8, R1162X-CFTR (Homo sapiens, UniProt P13569).
T8 construct: the C-terminus PTC mutant R1162X-CFTR (predicted to truncate CFTR just after MSD2); host or cells: FRT cells
Description: Short-circuit current in FRT cells expressing R1162X-CFTR. Format: cell-based. The conditions noted are these: 20 μM forskolin, 5 μM VX-770, 20 μM ASP-11, 3 μM VX-809. As to the method: as §1

The next assay has as its target T9, V520F (Homo sapiens, UniProt P13569, V520F).
T9 construct: host or cells: FRT cells
In words: Short-circuit current in FRT cells expressing V520F-CFTR. Format: cell-based. The conditions noted are these: 20 μM forskolin, 5 μM VX-770, 20 μM ASP-11. As to the method: as §1

The target in another assay is I1234del-CFTR (Homo sapiens, UniProt P13569, DEL1234-1239). In words: Short-circuit current in FRT cells expressing I1234del-CFTR. Format: cell-based. Further details: introduced into full-length CFTR cDNA in the vector pcDNA3.1/Zeo (+); expressed in transfected cells; host or cells: FRT cells, pIRESpuro3 vector, puromycin-selected clonal lines. The following applies: 20 μM ASP-11 with 5 μM VX-770, 20 μM forskolin. As to the method: as §1
GraphPad Prism software (GraphPad Inc., San Diego, Calif., USA) was used for statistical analysis. EC50 values were determined by non-linear regression to a single-site inhibition model. Statistical significance was determined using unpaired Student's t test, with P<0.05 considered significant.
Compound 2i was also tested on a second minimal function CFTR mutation, I1234del-CFTR, which is generated by the c.3700A>G mutation that results in deletion of 6 amino acids from the CFTR polypeptide (p.Ile1234_Arg1239del-CFTR, hereafter termed I1234del-CFTR) due to introduction of a cryptic splice site in the CFTR transcript.

A further assay deals with T10, W1282X-CFTR (Homo sapiens, UniProt P13569).
T10 construct: CFTR1281 (the truncation product generated by W1282X-CFTR); expressed in transfected cells
The following applies: ASP-11 in combination with VX-770; truncated W1282X-CFTR product (CFTR1281); cited from earlier work.

In another assay the target is T11, W1282L-CFTR (Homo sapiens, UniProt P13569, W1282L).
T11 construct: introduced into full-length CFTR cDNA in the vector pcDNA3.1/Zeo (+); expressed in transfected cells; host or cells: FRT cells, pIRESpuro3 vector, puromycin-selected clonal lines
Description: Short-circuit current in FRT cells expressing W1282L-CFTR. Format: cell-based. The conditions noted are these: predicted W1282X read-through product. As for the experimental part:
(§2) Compounds that promote read-through of PTCs to generate full-length CFTR have shown limited efficacy in cell culture studies (14-16). Though the read-through drug ataluren (PTC124) was ineffective in clinical trials (17), newer compounds are in development. The ability of ASP-11 to activate chloride current in predicted W1282X-CFTR read-through products was investigated. […] FRT cell lines were generated that stably expressing W1282L-, W1282C- and W1282R-CFTR.
as §1

For a further assay, the target named is T12, W1282C-CFTR (Homo sapiens, UniProt P13569, W1282C).
T12 construct: introduced into full-length CFTR cDNA in the vector pcDNA3.1/Zeo (+); expressed in transfected cells; host or cells: FRT cells, pIRESpuro3 vector, puromycin-selected clonal lines
Description: Short-circuit current in FRT cells expressing W1282C-CFTR. The class given is cell-based. The following applies: predicted W1282X read-through product. As to the method: as §2, §1

SMILES strings stand for the structures.

T2 sequence (P13569 whole entry N1303K): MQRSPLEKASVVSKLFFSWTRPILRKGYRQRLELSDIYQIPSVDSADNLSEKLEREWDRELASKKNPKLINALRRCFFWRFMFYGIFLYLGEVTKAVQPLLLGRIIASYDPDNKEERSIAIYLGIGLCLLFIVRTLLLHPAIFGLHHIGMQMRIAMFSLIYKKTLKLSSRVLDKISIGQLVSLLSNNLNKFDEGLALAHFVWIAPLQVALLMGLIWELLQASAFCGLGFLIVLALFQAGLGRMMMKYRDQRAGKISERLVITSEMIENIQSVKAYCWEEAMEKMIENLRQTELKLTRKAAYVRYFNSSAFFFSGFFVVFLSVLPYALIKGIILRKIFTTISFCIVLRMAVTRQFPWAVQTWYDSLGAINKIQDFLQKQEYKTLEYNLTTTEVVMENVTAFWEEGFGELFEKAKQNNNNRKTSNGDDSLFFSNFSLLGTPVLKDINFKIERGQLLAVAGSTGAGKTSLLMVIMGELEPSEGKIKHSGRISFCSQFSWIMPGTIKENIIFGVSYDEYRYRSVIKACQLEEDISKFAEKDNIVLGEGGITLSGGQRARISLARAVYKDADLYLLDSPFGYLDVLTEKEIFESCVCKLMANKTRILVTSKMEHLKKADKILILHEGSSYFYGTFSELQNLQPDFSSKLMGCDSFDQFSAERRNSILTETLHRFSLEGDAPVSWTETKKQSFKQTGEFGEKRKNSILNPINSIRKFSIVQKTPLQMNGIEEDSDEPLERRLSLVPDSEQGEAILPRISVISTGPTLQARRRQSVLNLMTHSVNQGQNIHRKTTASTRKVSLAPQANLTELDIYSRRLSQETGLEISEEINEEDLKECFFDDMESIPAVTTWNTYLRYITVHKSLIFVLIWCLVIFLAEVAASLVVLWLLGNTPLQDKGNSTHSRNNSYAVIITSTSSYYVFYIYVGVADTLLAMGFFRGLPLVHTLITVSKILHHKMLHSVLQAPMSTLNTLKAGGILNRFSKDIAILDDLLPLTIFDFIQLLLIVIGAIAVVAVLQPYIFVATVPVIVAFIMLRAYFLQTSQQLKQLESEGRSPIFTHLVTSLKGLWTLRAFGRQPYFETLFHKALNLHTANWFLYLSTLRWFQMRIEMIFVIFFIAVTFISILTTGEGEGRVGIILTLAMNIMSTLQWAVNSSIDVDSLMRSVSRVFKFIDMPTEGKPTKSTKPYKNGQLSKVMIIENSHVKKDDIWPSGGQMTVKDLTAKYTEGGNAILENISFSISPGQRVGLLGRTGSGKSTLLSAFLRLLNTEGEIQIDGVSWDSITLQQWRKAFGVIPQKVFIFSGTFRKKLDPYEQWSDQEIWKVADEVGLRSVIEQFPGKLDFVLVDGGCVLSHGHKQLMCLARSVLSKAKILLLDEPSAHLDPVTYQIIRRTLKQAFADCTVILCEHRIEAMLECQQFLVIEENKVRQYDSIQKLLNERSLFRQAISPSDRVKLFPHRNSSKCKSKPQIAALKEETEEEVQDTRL
Chain of G551D-CFTR (P13569 whole entry G551D): as the sequence (P13569 whole entry N1303K) above, with G551D, K1303N counted along it
T11 sequence (P13569 whole entry W1282L): as the sequence (P13569 whole entry N1303K) above, with W1282L, K1303N counted along it
T7 sequence (P13569 whole entry M1101K): as the sequence (P13569 whole entry N1303K) above, with M1101K, K1303N counted along it
T8 sequence (P13569 1-1161 limits assumed): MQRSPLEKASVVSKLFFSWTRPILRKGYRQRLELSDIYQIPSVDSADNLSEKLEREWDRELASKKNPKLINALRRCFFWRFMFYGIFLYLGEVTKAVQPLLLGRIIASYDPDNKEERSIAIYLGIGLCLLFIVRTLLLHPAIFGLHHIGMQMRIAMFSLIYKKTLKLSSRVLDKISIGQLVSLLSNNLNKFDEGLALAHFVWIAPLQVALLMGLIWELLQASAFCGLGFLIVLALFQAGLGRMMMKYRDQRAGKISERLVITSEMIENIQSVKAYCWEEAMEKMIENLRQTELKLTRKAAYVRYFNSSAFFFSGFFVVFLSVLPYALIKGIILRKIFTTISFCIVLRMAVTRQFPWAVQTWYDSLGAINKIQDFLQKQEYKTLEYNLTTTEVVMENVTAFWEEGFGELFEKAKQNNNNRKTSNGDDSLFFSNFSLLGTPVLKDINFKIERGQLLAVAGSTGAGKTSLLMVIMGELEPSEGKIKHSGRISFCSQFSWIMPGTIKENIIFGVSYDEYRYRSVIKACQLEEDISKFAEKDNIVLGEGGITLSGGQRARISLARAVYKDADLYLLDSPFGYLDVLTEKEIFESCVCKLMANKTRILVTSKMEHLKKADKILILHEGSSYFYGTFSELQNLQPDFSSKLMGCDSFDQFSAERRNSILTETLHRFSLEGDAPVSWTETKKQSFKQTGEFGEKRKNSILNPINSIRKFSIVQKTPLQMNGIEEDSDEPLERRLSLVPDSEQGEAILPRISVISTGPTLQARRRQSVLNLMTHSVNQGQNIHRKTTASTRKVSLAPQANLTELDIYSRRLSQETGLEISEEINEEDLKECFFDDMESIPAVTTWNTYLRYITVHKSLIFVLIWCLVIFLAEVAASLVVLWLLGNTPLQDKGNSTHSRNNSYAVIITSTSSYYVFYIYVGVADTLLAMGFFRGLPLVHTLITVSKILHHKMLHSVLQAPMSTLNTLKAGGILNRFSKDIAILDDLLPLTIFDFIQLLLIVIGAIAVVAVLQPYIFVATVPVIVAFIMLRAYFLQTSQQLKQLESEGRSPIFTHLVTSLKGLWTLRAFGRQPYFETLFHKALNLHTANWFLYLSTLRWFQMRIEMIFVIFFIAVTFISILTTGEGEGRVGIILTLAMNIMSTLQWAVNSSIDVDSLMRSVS
T3 sequence (P13569 1-1312 limits assumed): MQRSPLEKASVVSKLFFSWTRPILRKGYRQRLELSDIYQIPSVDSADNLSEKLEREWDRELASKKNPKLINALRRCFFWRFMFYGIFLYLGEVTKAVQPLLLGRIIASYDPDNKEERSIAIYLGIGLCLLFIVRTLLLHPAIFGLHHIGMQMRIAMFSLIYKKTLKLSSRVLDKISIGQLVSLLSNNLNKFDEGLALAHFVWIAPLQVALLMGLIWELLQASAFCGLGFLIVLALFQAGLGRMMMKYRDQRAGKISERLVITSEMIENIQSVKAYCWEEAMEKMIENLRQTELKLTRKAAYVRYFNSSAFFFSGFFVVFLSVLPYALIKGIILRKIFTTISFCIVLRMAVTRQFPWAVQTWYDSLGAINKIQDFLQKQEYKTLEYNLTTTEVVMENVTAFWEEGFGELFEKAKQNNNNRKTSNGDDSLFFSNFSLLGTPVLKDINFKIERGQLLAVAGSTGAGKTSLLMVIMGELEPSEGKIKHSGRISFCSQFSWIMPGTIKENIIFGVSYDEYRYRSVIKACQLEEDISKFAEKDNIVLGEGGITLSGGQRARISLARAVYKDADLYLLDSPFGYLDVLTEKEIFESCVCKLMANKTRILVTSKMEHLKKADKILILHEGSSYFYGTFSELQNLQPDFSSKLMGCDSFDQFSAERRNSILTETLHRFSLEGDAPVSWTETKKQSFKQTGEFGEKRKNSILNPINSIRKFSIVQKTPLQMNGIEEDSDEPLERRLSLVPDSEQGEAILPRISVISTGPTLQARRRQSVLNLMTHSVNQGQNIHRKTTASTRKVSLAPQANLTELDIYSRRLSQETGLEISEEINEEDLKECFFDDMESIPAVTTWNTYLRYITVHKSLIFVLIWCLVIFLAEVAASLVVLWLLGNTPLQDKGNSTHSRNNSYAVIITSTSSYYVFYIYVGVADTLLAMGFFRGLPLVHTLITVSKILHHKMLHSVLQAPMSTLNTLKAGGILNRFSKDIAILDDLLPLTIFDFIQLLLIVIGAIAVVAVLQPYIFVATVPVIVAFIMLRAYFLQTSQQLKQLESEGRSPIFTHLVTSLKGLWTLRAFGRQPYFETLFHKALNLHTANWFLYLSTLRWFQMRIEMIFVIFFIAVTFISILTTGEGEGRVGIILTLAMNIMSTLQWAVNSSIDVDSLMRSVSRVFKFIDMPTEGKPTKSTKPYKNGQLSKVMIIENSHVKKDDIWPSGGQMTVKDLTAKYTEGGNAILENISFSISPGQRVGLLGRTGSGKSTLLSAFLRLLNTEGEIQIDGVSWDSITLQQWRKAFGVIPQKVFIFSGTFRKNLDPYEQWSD
T6 sequence (P13569 whole entry L1077P): as the sequence (P13569 whole entry N1303K) above, with L1077P, K1303N counted along it
T12 sequence (P13569 whole entry W1282C): as the sequence (P13569 whole entry N1303K) above, with W1282C, K1303N counted along it
T1 sequence (P13569 whole entry R560T): as the sequence (P13569 whole entry N1303K) above, with R560T, K1303N counted along it
T9 sequence (P13569 whole entry V520F): as the sequence (P13569 whole entry N1303K) above, with V520F, K1303N counted along it
T4 sequence (P13569 whole entry R334W): as the sequence (P13569 whole entry N1303K) above, with R334W, K1303N counted along it
T5 sequence (P13569 whole entry S492F): as the sequence (P13569 whole entry N1303K) above, with S492F, K1303N counted along it

Turning to `CCCCn1cc(S(=O)(=O)Nc2ccc(CC)cc2)c2cccnc21` [ASP-11, 1-butyl-N-(4-ethylphenyl)-1H-pyrrolo[2,3-b]pyridine-3-sulfonamide], the “short-circuit current response” value at R560T is listed as “absence of response”; on R334W, “absence of response”; on S492F-CFTR it was “no response”; at L1077P it was “absence of response”; at M1101K, “absence of response”; on R1162X-CFTR it was “did not respond”. For the same molecule, the “short-circuit current response” value at V520F is on record as “absence of response”. Further, the “increase of chloride current compared with VX-770 alone” value at N1303K-CFTR [1] and at W1282X-CFTR was about 8 fold each time. The “increase of chloride current compared to VX-770” value on Q1313X-CFTR and at I1234del-CFTR was 3-9 fold each time. Besides, at N1303K-CFTR [2] (20 μM forskolin, 5 μM VX-770, 20 μM test potentiator), the “short-circuit current response when added after VX-770” value is listed as “synergy”. Further, the “activation by two Class II potentiators added together” value at N1303K-CFTR [2] (W1282Xpot-C01 and ASP-11, 20 μM each, no Class I potentiator) is “little activation”. Besides, the “improvement of chloride channel function compared with VX-770 alone” value on G551D-CFTR (ASP-11 in combination with VX-770) is given as about 50%. For the same molecule, the “activation of G551D-CFTR” value on G551D-CFTR (previously shown) was “activates G551D-CFTR”. Besides, the “short-circuit current effect additional to forskolin” value at W1282L-CFTR is reported as “little additional”; on W1282C-CFTR, “significant further effects”.

(Values after US20220323425A1, “CO-POTENTIATORS FOR THERAPY OF CYSTIC FIBROSIS CAUSED BY MINIMAL FUNCTION CFTR MUTANTS” (THE REGENTS OF THE UNIVERSITY OF CALIFORNIA, priority 2019, published 2022).)
